Values joined by “and” are separate entries in the source; they are usually repeats but may differ in a detail not shown here. Identical values can stand only once.
Tested on: T lymphocyte
Experiment: T lymphocyte cell proliferation assay (CFSE, CD4+/CD8+ flow cytometry)
Format: cell-based, human
Procedure: T lymphocyte cell proliferation assay was performed according to a reported method[58] with some modification. Briefly, 5 × 10^6 cells /mL cells were stained 2.5 μM CFSE (Tonbo Biosciences) and incubated at 37 °C for 12 min. Then washed and discarded the supernatant and adjusted the CFSE stained cell to 1.75 × 10^6 cells /mL. Cells were diluted in 1640 completed medium containing 5 μg/mL anti-CD3 antibody (Tonbo Biosciences) to 3 × 10^5 cells/mL and seed in a 96-well plate or 24-well plate that pre-packaged 0.4 μg/well anti-CD28 antibody and 1.6 μg anti-CD28 antibody (24-well) (Tonbo Biosciences). Cells were then cultured for 3 days, 9 days or 12 days. Subsequently, the proportion of CD4^+ and CD8^+ cells was determined by flow cytometry (Beckman Coulter, FC500) according to manufacturer’s instruction of PE-Cyanine7 anti-Human CD8a and PE anti-Human CD4 antibodies (Tonbo Biosciences). Data analyzing was performed by using CXP software (Beckman Coulter, Supplementary Fig. 8).

[1] = Cancer donor 1, 3 day, Denosumab 2
[2] = Cancer donor 1, 3 day, Denosumab 10
[3] = Cancer donor 1, 3 day, Denosumab 50
[4] = Cancer donor 1, 3 day, Denosumab 100
[5] = Healthy donor 1, 3 day, Denosumab 2
[6] = Healthy donor 1, 3 day, Denosumab 10
[7] = Healthy donor 1, 3 day, Denosumab 50
[8] = Healthy donor 1, 3 day, Denosumab 100
[9] = Healthy donor 1, 12 day, Denosumab 2
[10] = Healthy donor 1, 12 day, Denosumab 10
[11] = Healthy donor 1, 12 day, Denosumab 50
[12] = Healthy donor 1, 12 day, Denosumab 100
[13] = Healthy donor 2, 9 day, Denosumab 2
[14] = Healthy donor 2, 9 day, Denosumab 10
[15] = Healthy donor 2, 9 day, Denosumab 50
[16] = Healthy donor 2, 9 day, Denosumab 100
[17] = cancer patient donors 1, 3 day, Denosumab conc. 2
[18] = cancer patient donors 1, 3 day, Denosumab conc. 10
[19] = cancer patient donors 1, 3 day, Denosumab conc. 50
[20] = cancer patient donors 1, 3 day, Denosumab conc. 100
[21] = healthy donors 2, 9 day, Denosumab conc. 2
[22] = healthy donors 2, 9 day, Denosumab conc. 10
[23] = healthy donors 2, 9 day, Denosumab conc. 50
[24] = healthy donors 2, 9 day, Denosumab conc. 100

Denosumab: human monoclonal antibody targeting RANKL [reference compound]
CD8+ cells in total cells (%) [1]: 12.95% and 18.88% and 19.88%
CD8+cells in CFSE-cells (%) [1]: 47.83% and 52.36% and 55.86%
CFSE- cells in total cells (%) [1]: 7.68% and 12.7% and 13.49%
CD8+ cells in total cells (%) [2]: 19.52% and 20.76% and 18.73% and 17.85%
CD8+cells in CFSE-cells (%) [2]: 58.3% and 60.56% and 50.89% and 60.05%
CFSE- cells in total cells (%) [2]: 14.67% and 15.58% and 13.42% and 13.19%
CD8+ cells in total cells (%) [3]: 26.97% and 21.55% and 18.02% and 16.53%
CD8+cells in CFSE-cells (%) [3]: 60.83% and 60.63% and 65.78% and 55.26%
CFSE- cells in total cells (%) [3]: 18.07% and 17.65% and 14.37% and 12.07%
CD8+ cells in total cells (%) [4]: 18.07% and 12.62% and 9.75% and 19.7%
CD8+cells in CFSE-cells (%) [4]: 58.14% and 64.44% and 57.46% and 66.87%
CFSE- cells in total cells (%) [4]: 13.67% and 8.82% and 5.94% and 14.04%
CD4+cells in total cells (%) [5]: 69.69% and 70.06% and 70.95% and 70.86%
CD8+ cells in total cells (%) [5]: 18.8% and 18.88% and 18.25% and 19.29%
CD8+cells in CFSE-cells (%) [5]: 26.34% and 25.38% and 32.57% and 36.89%
CFSE- cells in total cells (%) [5]: 26.84% and 28.54% and 29.29% and 24.77%
CD4+cells in total cells (%) [6]: 65.55% and 67.08% and 69.8% and 70.72%
CD8+ cells in total cells (%) [6]: 12.83% and 18.37% and 19.41% and 19.55%
CD8+cells in CFSE-cells (%) [6]: 30.74% and 26.84% and 36.74% and 30.32%
CFSE- cells in total cells (%) [6]: 20.59% and 18.28% and 26.59% and 31.48%
CD4+cells in total cells (%) [7]: 67.05% and 68.05% and 69.94%
CD8+ cells in total cells (%) [7]: 11.73% and 19.23% and 18.46% and 17.76%
CD8+cells in CFSE-cells (%) [7]: 24.41% and 28.83% and 32.28% and 24%
CFSE- cells in total cells (%) [7]: 15.36% and 19.21% and 18.01% and 22.17%
CD4+cells in total cells (%) [8]: 70.71% and 71.03% and 67.42% and 69.45%
CD8+ cells in total cells (%) [8]: 18.51% and 19.03% and 18%
CD8+cells in CFSE-cells (%) [8]: 34.99% and 31.86% and 30.15% and 27.25%
CFSE- cells in total cells (%) [8]: 23.52% and 25.01% and 20.72% and 24.32%
CD4+cells in total cells (%) [9]: 26.49% and 25.92% and 26.52% and 28.25%
CD8+ cells in total cells (%) [9]: 16.3% and 19.12% and 15.44% and 15.28%
CD8+cells in CFSE-cells (%) [9]: 73.19% and 72% and 71.55% and 68.56%
CFSE- cells in total cells (%) [9]: 14.97% and 17.18% and 14.07% and 13.53%
CD4+cells in total cells (%) [10]: 25.95% and 25.52% and 26.76% and 24.64%
CD8+ cells in total cells (%) [10]: 15.64% and 17.84% and 16.84% and 18.91%
CD8+cells in CFSE-cells (%) [10]: 74.4% and 67.54% and 67.82% and 72.96%
CFSE- cells in total cells (%) [10]: 15.13% and 15.31% and 14.05% and 17.18%
CD4+cells in total cells (%) [11]: 24.55% and 27.22% and 26.53% and 28.64%
CD8+ cells in total cells (%) [11]: 20.42% and 18.55% and 17.94% and 15.51%
CD8+cells in CFSE-cells (%) [11]: 76.93% and 74.3% and 73% and 74.26%
CFSE- cells in total cells (%) [11]: 19.56% and 16.94% and 16.16% and 14.84%
CD4+cells in total cells (%) [12]: 25.87% and 24.55% and 27.13% and 25.36%
CD8+ cells in total cells (%) [12]: 17.35% and 16.6% and 14.41% and 19%
CD8+cells in CFSE-cells (%) [12]: 75.89% and 76.07% and 78.18% and 58.5%
CFSE- cells in total cells (%) [12]: 16.6% and 18.55% and 14.85% and 14.03%
CD8+ cells in total cells (%) [13]: 62.1% and 50.03% and 44.09%
CD8+cells in CFSE-cells (%) [13]: 46.7% and 62.97% and 61.41%
CFSE- cells in total cells (%) [13]: 29.5% and 51.59% and 42.27%
CD8+cells in CFSE-cells (%) [14]: 52.77% and 43.74% and 55.57%
CFSE- cells in total cells (%) [14]: 41.17% and 28.01% and 37.92%
CD8+ cells in total cells (%) [15]: 20.69% and 38.29% and 38.09%
CD8+cells in CFSE-cells (%) [15]: 53.31% and 54.69% and 48.69%
CFSE- cells in total cells (%) [15]: 29.61% and 31.67% and 28.7%
CD8+ cells in total cells (%) [16]: 58.4% and 50.02% and 56.13%
CD8+cells in CFSE-cells (%) [16]: 75.13% and 70.69% and 68.35%
CFSE- cells in total cells (%) [16]: 59.44% and 46.67% and 44.15%
CD4+cells in total cells (%) [17]: 2.77% and 5.83% and 5.1%
CFSE-CD4+cells in CFSE-cells (%) [17]: 6.78% and 7.64% and 7.28%
CD4+cells in total cells (%) [18]: 4.94% and 4.86% and 1.84% and 3.11%
CFSE-CD4+cells in CFSE-cells (%) [18]: 6.34% and 3.24% and 8% and 8.92%
CD4+cells in total cells (%) [19]: 1.87% and 6.24% and 6.17% and 6.5%
CFSE-CD4+cells in CFSE-cells (%) [19]: 4% and 0.79% and 1.56% and 4.58%
CD4+cells in total cells (%) [20]: 9.55% and 7.15% and 9.97% and 6.77%
CFSE-CD4+cells in CFSE-cells (%) [20]: 4% and 0% and 0.9%
CD4+CFSE− cell after treatment (cancer patient, Fig. 7c, control 5.32 ± 0.76%): 1.33 ± 2.31%
total T cells isolated from cancer patient after treatment (cancer patient, Fig. 7c, control 14.51 ± 3.71%): 3.88 ± 1.77%
CD4+cells in total cells (%) (healthy donors 1, 3 day, Denosumab conc. 2): 72.37% and 73.3% and 66.26% and 61.44%
CD4+cells in total cells (%) (healthy donors 1, 3 day, Denosumab conc. 10): 65.16% and 71.53% and 62.16% and 68.6%
CD4+cells in total cells (%) (healthy donors 1, 3 day, Denosumab conc. 50): 73.23% and 69.38% and 66.17% and 74.19%
CD4+cells in total cells (%) (healthy donors 1, 3 day, Denosumab conc. 100): 64% and 66.67% and 68.46% and 71.67%
CFSE-CD4+cells in CFSE-cells (%) (healthy donors 1, 12 day, Denosumab conc. 2): 9.68% and 10.89% and 9.04% and 9.57%
CFSE-CD4+cells in CFSE-cells (%) (healthy donors 1, 12 day, Denosumab conc. 10): 10.52% and 10.85% and 8.44% and 10.78%
CFSE-CD4+cells in CFSE-cells (%) (healthy donors 1, 12 day, Denosumab conc. 50): 8.71% and 10.48% and 9.97% and 9.81%
CFSE-CD4+cells in CFSE-cells (%) (healthy donors 1, 12 day, Denosumab conc. 100): 9.75% and 11.53% and 10.58%
CD4+cells in total cells (%) [21]: 17% and 17.01% and 14.7%
CFSE-CD4+cells in CFSE-cells (%) [21]: 42.1% and 26.91% and 24.13%
CD4+cells in total cells (%) [22]: 13.52% and 17.3% and 15.5%
CFSE-CD4+cells in CFSE-cells (%) [22]: 24.29% and 47.85% and 28.82%
CD4+cells in total cells (%) [23]: 12.4% and 14.63% and 15.19%
CFSE-CD4+cells in CFSE-cells (%) [23]: 19.21% and 28.79% and 29.22%
CD4+cells in total cells (%) [24]: 14.9% and 10.87% and 12.57%
CFSE-CD4+cells in CFSE-cells (%) [24]: 20.36% and 16.35% and 22.15%
total CD4+ and CD4+CFSE− T cell (human 2, 9 days, 100 μg/mL): dropped by nearly half
lymphocyte proliferation (human lymphocytes, in words): notably inhibits lymphocyte proliferation at high concentration
